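Following 48 hours of exposure in 96-well plates, responses at five concentrations were used to interpolate endpoints linearly. GI50: concentration for 50% inhibition of growth.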 Active and inactive are the calls of the source. No stated cut-off is given here; in the data, active = GI50 up to about 1.1 µM and inactive = higher.
Key:
Experiment in all cases: NCI tumour cell line growth inhibition, 48 h
DMS-114 = test system: DMS-114
DMS-273 = test system: DMS-273
KM-20L2 = test system: KM-20L2
SNB-78 = test system: SNB-78
XF498 = test system: XF498
RXF 631 = test system: RXF 631
LXFL 529 = test system: LXFL 529
T47D = test system: T47D
HOP-18 = test system: HOP-18

Measured: GI50

[O-][n+]1c(-c2ccccc2)c2nc3ccccc3nc2c2ccccc21
inactive: DMS-114 > 100 µM | DMS-273 > 100 µM | KM-20L2 > 100 µM | SNB-78 27.5 µM | XF498 > 100 µM | RXF 631 > 100 µM | LXFL 529 7.78 µM

C/C(CC(=O)Nc1ccc(C)c(C)c1)=N\NC(N)=S
inactive: DMS-114 > 100 µM | DMS-273 > 100 µM | KM-20L2 > 100 µM | SNB-78 > 100 µM | RXF 631 > 100 µM | LXFL 529 > 100 µM

CC(C)NCCC(O)c1cc2ccccc2o1 (stereo not drawn)
inactive: T47D > 100 µM

OC(c1cc2ccc(C(F)(F)F)cc2c2cc(C(F)(F)F)ccc12)C1CCCCN1 (stereo not drawn)
inactive: T47D 1.87 µM

CNS(=O)(=O)NN(C)S(=O)(=O)c1ccc2ccccc2c1
inactive: DMS-114 > 100 µM | DMS-273 > 100 µM | KM-20L2 > 100 µM | RXF 631 > 100 µM | LXFL 529 > 100 µM

C=C(C)CN(CC#N)CC(=C)C
inactive: T47D > 100 µM

O=C1C(Nc2ccc(S(=O)(=O)Nc3cnc4ccccc4n3)cc2)=C/C(=N\c2ccc(S(=O)(=O)Nc3cnc4ccccc4n3)cc2)c2ccccc21
inactive: DMS-114 21.2 µM | HOP-18 13.7 µM | DMS-273 12 µM | KM-20L2 17.7 µM | SNB-78 22.5 µM | XF498 25.5 µM | LXFL 529 15.2 µM

CC(=O)CC(=O)ON(C)C(C)=O
inactive: DMS-114 > 100 µM | DMS-273 > 100 µM | KM-20L2 > 100 µM | SNB-78 > 100 µM | XF498 > 100 µM | LXFL 529 > 100 µM

CCOC(=O)NC(=O)c1cn(C2OC(CO)C(O)C2O)c(=O)[nH]c1=O (stereo not drawn)
inactive: DMS-114 > 100 µM | DMS-273 > 100 µM | KM-20L2 > 100 µM | RXF 631 > 100 µM | LXFL 529 > 100 µM

COC(=O)/C=C(/C(=O)OC)c1c(C)cc2c(C)cc(C)cc(C)c1-2
inactive: T47D 44.1 µM

CCN1CC2(COC)C(O)CC(OC)C34C5CC6(O)C(OC)C=C(C5C6OC(=O)c5ccc(OC)c(OC)c5)C(C(OC)C23)C14 (stereo not drawn)
inactive: T47D > 7.5 µM

CCOc1ccc(NC(=O)CC2SC(Nc3ccc(C)cc3)=NC2=O)cc1 (stereo not drawn)
inactive: DMS-114 > 100 µM | DMS-273 > 100 µM | KM-20L2 > 100 µM | SNB-78 > 100 µM | XF498 > 100 µM | RXF 631 > 100 µM | LXFL 529 > 100 µM
